Organism: Rattus norvegicus
Assay: DrugMatrix - Regimen: Daily Repeat
Type: toxicity, organism-based, Sprague-Dawley
Parameters: regimen Daily Repeat, gender Male, age 6-8 weeks
Conditions: in vivo, po, route oral GAVAGE, […]; for ABSOLUTE BASOPHIL / ABSOLUTE EOSINOPHIL / ABSOLUTE LYMPHOCYTE / ABSOLUTE MONOCYTE / ABSOLUTE SEGMENTED NEUTROPHIL / BASOPHIL / EOSINOPHIL / ERYTHROCYTE COUNT / HEMATOCRIT / HEMOGLOBIN / LEUKOCYTE COUNT / LYMPHOCYTE / MEAN CORPUSCULAR HEMOGLOBIN / MEAN CORPUSCULAR HEMOGLOBIN CONCENTRATION / MEAN CORPUSCULAR VOLUME / MONOCYTE / NEUTROPHIL / NUCLEATED RED BLOOD CELLS / PLATELET COUNT: tissue Blood; for ALANINE AMINOTRANSFERASE / ALBUMIN / ALKALINE PHOSPHATASE / ASPARTATE AMINOTRANSFERASE / BLOOD UREA NITROGEN / CARBON DIOXIDE / CHLORIDE / CHOLESTEROL / CREATINE PHOSPHOKINASE / CREATININE / GLUCOSE / LACTATE DEHYDROGENASE / LIPASE / PHOSPHORUS / POTASSIUM / SODIUM / TOTAL BILIRUBIN / TOTAL PROTEIN / URIC ACID: tissue Plasma
[1] = 0 mg/kg, 72 h, dose level Control, time 3 day
[2] = 0 mg/kg, 120 h, dose level Control, time 5 day
[3] = 30 mg/kg, 72 h, dose level Low, time 3 day

Cc1oncc1C(=O)Nc1ccc(C(F)(F)F)cc1 [LEFLUNOMIDE]
ABSOLUTE BASOPHIL [1]: 0 CELLS/uL
ABSOLUTE EOSINOPHIL [1]: 52.33 CELLS/uL
ABSOLUTE LYMPHOCYTE [1]: 9105.33 CELLS/uL
ABSOLUTE MONOCYTE [1]: 155.67 CELLS/uL
ABSOLUTE SEGMENTED NEUTROPHIL [1]: 1020 CELLS/uL
BASOPHIL [1]: 0%
EOSINOPHIL [1]: 0.33%
ERYTHROCYTE COUNT [1]: 5.03 x10E6/uL
HEMATOCRIT [1]: 31.63%
HEMOGLOBIN [1]: 12.37 G/DL
LEUKOCYTE COUNT [1]: 10.33 x10E3/uL
LYMPHOCYTE [1]: 87%
MEAN CORPUSCULAR HEMOGLOBIN [1]: 24.57 pg
MEAN CORPUSCULAR HEMOGLOBIN CONCENTRATION [1]: 39.07 G/DL
MEAN CORPUSCULAR VOLUME [1]: 62.93 fL
MONOCYTE [1]: 1.33%
NEUTROPHIL [1]: 11.33%
NUCLEATED RED BLOOD CELLS [1]: 0 /100WBC
PLATELET COUNT [1]: 896 x10E3/uL
ALANINE AMINOTRANSFERASE [1]: 75.33 u/L
ALBUMIN [1]: 3.77 G/DL
ALKALINE PHOSPHATASE [1]: 378.67 u/L
ASPARTATE AMINOTRANSFERASE [1]: 101.33 u/L
BLOOD UREA NITROGEN [1]: 11.33 mg/dL
CARBON DIOXIDE [1]: 25 mmol/L
CHLORIDE [1]: 99 MEQ/L
CHOLESTEROL [1]: 66 mg/dL
CREATINE PHOSPHOKINASE [1]: 277 u/L
CREATININE [1]: 0.33 mg/dL
GLUCOSE [1]: 198.33 mg/dL
LACTATE DEHYDROGENASE [1]: 140.33 u/L
LIPASE [1]: 11.33 u/L
PHOSPHORUS [1]: 11.83 mg/dL
POTASSIUM [1]: 5.37 MEQ/L
SODIUM [1]: 141.03 MEQ/L
TOTAL BILIRUBIN [1]: 0.2 mg/dL
TOTAL PROTEIN [1]: 5.47 G/DL
URIC ACID [1]: 0.93 mg/dL
ABSOLUTE BASOPHIL [2]: 0 CELLS/uL
ABSOLUTE EOSINOPHIL [2]: 0 CELLS/uL
ABSOLUTE LYMPHOCYTE [2]: 8734 CELLS/uL
ABSOLUTE MONOCYTE [2]: 98.67 CELLS/uL
ABSOLUTE SEGMENTED NEUTROPHIL [2]: 1034 CELLS/uL
BASOPHIL [2]: 0%
EOSINOPHIL [2]: 0%
ERYTHROCYTE COUNT [2]: 5.19 x10E6/uL
HEMATOCRIT [2]: 33.2%
HEMOGLOBIN [2]: 12.93 G/DL
LEUKOCYTE COUNT [2]: 9.87 x10E3/uL
LYMPHOCYTE [2]: 87%
MEAN CORPUSCULAR HEMOGLOBIN [2]: 25 pg
MEAN CORPUSCULAR HEMOGLOBIN CONCENTRATION [2]: 39.03 G/DL
MEAN CORPUSCULAR VOLUME [2]: 63.93 fL
MONOCYTE [2]: 1%
NEUTROPHIL [2]: 12%
NUCLEATED RED BLOOD CELLS [2]: 0 /100WBC
PLATELET COUNT [2]: 1190 x10E3/uL
ALANINE AMINOTRANSFERASE [2]: 75.67 u/L
ALBUMIN [2]: 4 G/DL
ALKALINE PHOSPHATASE [2]: 384.33 u/L
ASPARTATE AMINOTRANSFERASE [2]: 89.67 u/L
BLOOD UREA NITROGEN [2]: 13 mg/dL
CARBON DIOXIDE [2]: 32.67 mmol/L
CHLORIDE [2]: 103 MEQ/L
CHOLESTEROL [2]: 79.67 mg/dL
CREATINE PHOSPHOKINASE [2]: 199.33 u/L
CREATININE [2]: 0.29 mg/dL
GLUCOSE [2]: 161.33 mg/dL
LACTATE DEHYDROGENASE [2]: 92.33 u/L
LIPASE [2]: 11.67 u/L
PHOSPHORUS [2]: 10.8 mg/dL
POTASSIUM [2]: 5.38 MEQ/L
SODIUM [2]: 145.3 MEQ/L
TOTAL BILIRUBIN [2]: 0.17 mg/dL
TOTAL PROTEIN [2]: 5.7 G/DL
URIC ACID [2]: 0.63 mg/dL
ABSOLUTE BASOPHIL [3]: 0 CELLS/uL
ABSOLUTE EOSINOPHIL [3]: 0 CELLS/uL
ABSOLUTE LYMPHOCYTE [3]: 5968 CELLS/uL
ABSOLUTE MONOCYTE [3]: 69 CELLS/uL
ABSOLUTE SEGMENTED NEUTROPHIL [3]: 863 CELLS/uL
BASOPHIL [3]: 0%
EOSINOPHIL [3]: 0%
ERYTHROCYTE COUNT [3]: 5.11 x10E6/uL
HEMATOCRIT [3]: 32.33%
HEMOGLOBIN [3]: 12.8 G/DL
LEUKOCYTE COUNT [3]: 6.9 x10E3/uL
LYMPHOCYTE [3]: 87%
MEAN CORPUSCULAR HEMOGLOBIN [3]: 25.03 pg
MEAN CORPUSCULAR HEMOGLOBIN CONCENTRATION [3]: 39.63 G/DL
MEAN CORPUSCULAR VOLUME [3]: 63.2 fL
MONOCYTE [3]: 1%
NEUTROPHIL [3]: 12%
NUCLEATED RED BLOOD CELLS [3]: 0 /100WBC
PLATELET COUNT [3]: 794.67 x10E3/uL
ALANINE AMINOTRANSFERASE [3]: 46.33 u/L
ALBUMIN [3]: 3.67 G/DL
ALKALINE PHOSPHATASE [3]: 251.33 u/L
ASPARTATE AMINOTRANSFERASE [3]: 75.67 u/L
BLOOD UREA NITROGEN [3]: 8 mg/dL
CARBON DIOXIDE [3]: 29.67 mmol/L
CHLORIDE [3]: 101.33 MEQ/L
CHOLESTEROL [3]: 98.67 mg/dL
CREATINE PHOSPHOKINASE [3]: 199.67 u/L
CREATININE [3]: 0.1 mg/dL
GLUCOSE [3]: 181.33 mg/dL
LACTATE DEHYDROGENASE [3]: 70 u/L
LIPASE [3]: 10.67 u/L
PHOSPHORUS [3]: 9.87 mg/dL
POTASSIUM [3]: 4.69 MEQ/L
SODIUM [3]: 144.17 MEQ/L
TOTAL BILIRUBIN [3]: 0.13 mg/dL
TOTAL PROTEIN [3]: 5.17 G/DL
URIC ACID [3]: 0.53 mg/dL

— ChEMBL document CHEMBL3885881, “DrugMatrix”
